Test results reported in patent US5919897A (priority 1995, dated 1999).
Where no end group is shown, it is not given here. [ ]: non-standard residue; d: D form.

Legend:
μ receptor = molecular target: T1, μ receptor (Homo sapiens, UniProt P35372); experiment: Adenylyl cyclase assay using human SH-SY5Y neuroblastoma cell line membranes; format: biochemical
T1 construct: An adenylyl cyclase assay using human SH-SY5Y neuroblastoma cell line membranes; endogenous in cells; host or cells: human SH-SY5Y neuroblastoma cells, differentiated with retinoic acid; membranes
T1 sequence (P35372 whole entry): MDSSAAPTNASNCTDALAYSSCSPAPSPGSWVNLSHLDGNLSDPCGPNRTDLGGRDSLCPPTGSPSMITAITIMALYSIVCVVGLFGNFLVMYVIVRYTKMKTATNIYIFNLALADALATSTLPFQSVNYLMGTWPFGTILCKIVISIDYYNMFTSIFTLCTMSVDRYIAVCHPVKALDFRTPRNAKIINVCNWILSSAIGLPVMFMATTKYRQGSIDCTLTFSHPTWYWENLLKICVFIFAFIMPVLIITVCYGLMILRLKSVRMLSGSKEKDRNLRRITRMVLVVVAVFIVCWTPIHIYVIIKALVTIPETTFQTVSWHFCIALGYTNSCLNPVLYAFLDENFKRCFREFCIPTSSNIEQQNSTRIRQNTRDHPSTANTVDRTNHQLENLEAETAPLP
Procedure: An adenylyl cyclase assay using human SH-SY5Y neuroblastoma cell line membranes was used to rapidly determine the opioid agonists or antagonist properties of individual peptides.
After the initial centrifugation at 200×g for 15 min at 4° C., the cells were resuspended in sucrose buffer (0.32M sucrose, 40 mM HEPES, 2 mM EDTA, pH 7.6). Cells were centrifuged again at 200×g, then homogenized in sucrose buffer with five strokes of a Dounce Homogenizer (Wheaton Instruments, Millville, N.J.). Membranes were centrifuged at 22000×g for 20 min at 4° C., then resuspended in sucrose buffer. […] SH-SY5Y membranes at a protein concentration of 1-4 mg/ml were stored at -80° C.
SH-SY5Y membranes were incubated in a final volume of 100 μl of 40 mM HEPES, pH 7.7, containing 15 units of creatine phosphokinase, 20 mM phosphocreatine, 1 mM 1,10-o-phenanthroline, 60 μM isobutylmethylxanthine (IBMX), 50 μM ATP, 50 μM GTP, 3 mM MgCl2 and 100 mM NaCl. Each of the agonists and antagonists tested were included at final concentrations of 100 μM and 500 μM, respectively. The reaction was initiated by the addition of 36 μg of membrane protein. After 15 min at 30° C., the reaction was stopped by the addition of 100μl of cold 4.5% perchloric acid. The samples were neutralized by the addition 40 μl of cold 30% potassium bicarbonate. Finally, the membranes were centrifuged at 12000×g for 4 min at 4° C. in a microcentrifuge; The amount of cyclic AMP present in 100μl of the supernatant, equivalent to the cyclic AMP produced by 15 μg of membrane protein, was determined using a cyclic AMP kit (Diagnostic Products, Los Angeles, Calif.). […] [^3 H]-cyclic AMP, 0.9 μCi, was added into 6 ml of H2 O, and 100 μl of the diluted [^3 H]-cyclic AMP was added to the assay tubes. The final supernatants were counted in 10 ml of Ecolite (+) scintillation fluid (ICN Pharmaceuticals, Covina, Calif.).

MU RECEPTOR = experiment: Mu receptor agonist or antagonist activity, by either the adenylyl cyclase assay or the GPI assay (Table 13)

Row | Compound | % Basal Control (cyclic AMP) (μ receptor; DAMGO 1 μM alone, ANTAGONISTS section) | % Basal Control +ICI 174,864 (μ receptor; DAMGO 1 μM, ANTAGONISTS section) | % Basal Control +ICI 174,864 (μ receptor; agonist 100 μM plus ICI 174,864 (antagonists 500 μM)) | % Basal Control +Naloxone (μ receptor; agonist 100 μM plus naloxone (antagonists 500 μM)) | % Basal Control (cyclic AMP) (μ receptor; agonist alone, 100 μM, SH-SY5Y membranes) | AGONIST OR ANTAGONIST (MU RECEPTOR)
1 | C[C@@H](NC(=O)[C@@H](N)Cc1ccc(O)cc1)C(=O)NCC(=O)N(C)[C@@H](Cc1ccccc1)C(=O)NCCO [DAMGO, [D-Ala^2,MePhe^4, Gly-ol^5]enkephalin] | 61 ± 5% | 95 ± 3% | 28 ± 3% | 77 ± 8% | 34 ± 6% | –
2 | [dI][dM][dT][dW]G[dP]-NH2 [SEQ ID NO. 130] | – | – | – | – | – | Agonist
